# Measurements reported in PMC11106739, “Discovery and Derivatization of Tridecaptin Antibiotics with Altered Host Specificity and Enhanced Bioactivity” (ACS Chemical Biology, 2024).
# Like-named read-outs stand apart in the source and are kept apart here. Where a SMILES comes first, the peptide text is derived from it. Bridges are numbered along the chain shown (N, C = ends). [ ]: non-standard residue; d: D form. The star is where a group is joined. d(aIle) = CC[C@H](C)[C@@H](N)C(=O)O; X1 = CC[C@H](C)CCCCC(=O)*; dDab = NCC[C@@H](N)C(=O)O; Octanoyl = CCCCCCCC(=O)*; Dab = NCC[C@H](N)C(=O)O
# Assays:
# S. aureus 1126387 = format: cell-based, Staphylococcus aureus
# Procedure: (§1) All minimum inhibitory concentrations (MICs) were determined according to the Clinical and Standards Laboratory Institute (CLSI) guidelines. In brief, agar plates were inoculated from glycerol stocks and incubated overnight at 35 °C. Peptide DMSO stocks were dispensed into 96-well round-bottom plates using a TECAN D300e dispenser. Colistin sulfate (Sigma-Aldrich) was dissolved in water and serially diluted in a cation-adjusted Mueller Hinton broth (10 μL per well). Final concentrations of the test compounds were 0.06 to 64 μg/mL. Inocula were prepared by direct colony suspension in NaCl at 0.5 MacFarland, which was further diluted 200-fold in cation-adjusted Mueller Hinton broth for a target inoculum of 2 × 10^5 colony forming units (CFUs)/mL. 100 μL portion of the prepared inoculum was added to each well of the prepared plates containing the test compounds. Plates were sealed with parafilm and incubated for 20 h at 35 °C. Images of all plates were recorded, and MIC was assessed visually.
# S. aureus ATCC 29213 = format: cell-based, Staphylococcus aureus
# Procedure: as §1
# S. aureus UAMS-1625 = format: cell-based, Staphylococcus aureus; settings: S. aureus UAMS-1625 (BV18); CLSI broth dilution, cation-adjusted Mueller Hinton broth, 20 h, 35 °C, read visually
# Procedure: as §1
# ATCC 25922 = format: cell-based, Enterococcus faecalis
# Procedure: as §1
# E. faecalis ATCC 29212 = format: cell-based, Enterococcus faecalis
# Procedure: as §1
# E. faecium ATCC 51559 = format: cell-based, Enterococcus faecium
# Procedure: as §1
# E. faecium IHMA 890472 = format: cell-based, Enterococcus faecium
# Procedure: as §1
# A. baumannii ATCC 17978 = format: cell-based, Acinetobacter baumannii
# Procedure: as §1
# A. baumannii HUMC1 = format: cell-based, Acinetobacter baumannii
# Procedure: as §1
# A. baumannii IHMA 777621 = format: cell-based, Acinetobacter baumannii
# Procedure: as §1
# E. coli 1214245 = format: cell-based, Escherichia coli
# Procedure: as §1
# E. coli 1220120 = format: cell-based, Escherichia coli
# Procedure: as §1
# E. coli ATCC 25922 = format: cell-based, Escherichia coli
# Procedure: as §1
# K. pneumoniae 1227947 = format: cell-based, Klebsiella pneumoniae
# Procedure: as §1
# K. pneumoniae 1228586 = format: cell-based, Klebsiella pneumoniae
# Procedure: as §1
# K. pneumoniae ATCC 13883 = format: cell-based, Klebsiella pneumoniae
# Procedure: as §1
# P. aeruginosa 1218019 = format: cell-based, Pseudomonas aeruginosa
# Procedure: as §1
# P. aeruginosa 1226072 = format: cell-based, Pseudomonas aeruginosa
# Procedure: as §1
# P. aeruginosa PAO1 = format: cell-based, Pseudomonas aeruginosa
# Procedure: as §1
# Rabbit red blood cells = assay: Hemolysis assay; format: cell-based; settings: rabbit red blood cells in PBS, 37 °C, 1 h, absorbance at 405 nm, normalization to the Triton X-100 control; 0.25 to 128 μg/mL tested
# Procedure: Peptides, dissolved in DMSO, were dispensed into 96-well round-bottom microplates using a TECAN D300e dispenser and subsequently diluted with 100 μL of PBS. PBS or 2% Triton X-100 was used as negative and positive controls, respectively. Rabbit red blood cells (BioConcept) were diluted in PBS to a final concentration of 2%, and 100 μL was added to each well of the prepared 96-well plates. The final concentration of the test compounds was 0.25 to 128 μg/mL. Plates were incubated at 37 °C for 1 h and afterward subjected to centrifugation at 1000g for 5 min. Then, 30 μL of supernatant was transferred to a new round-bottom plate, and absorbance was measured at 405 nm (TECAN Infinite F200). EC50s were calculated after blank subtraction and normalization to the Triton control.
# HepG2 cells = assay: Cytotoxicity determination (CellTiter-Glo); format: cell-based; settings: HepG2, medium without serum, 24 h, normalization to the untreated control, 1 to 128 μg/mL tested
# Procedure: HepG2 cells were grown in EMEM (Sigma) supplemented with 2 mM glutamine and 10% fetal bovine serum (Fisher) at 37 °C, 5% CO2. 20′000 cells per well were seeded into clear tissue culture-treated 96-well plates and incubated for 24 h. Peptides, dissolved in DMSO, were dispensed into 96 deep well plates (TECAN D300e dispenser) and diluted to a final concentration of 1 to 128 μg/mL using fresh medium without serum. The next day, the old media were removed from the cells, and 200 μL of the prepared compound dilutions was added per well. Plates were incubated for another 24 h before assessing the cell viability using the CellTiter-Glo kit (Promega) according to the manufacturer’s protocol. IC50s were calculated after normalization to the untreated control.
Structure (SMILES),"MIC (S. aureus 1126387; 1126387, 20 h)","MIC (S. aureus ATCC 29213; ATCC 29213, 20 h)",MIC (S. aureus UAMS-1625),"MIC (ATCC 25922; ATCC 25922, 20 h)","MIC (E. faecalis ATCC 29212; ATCC 29212, 20 h)","MIC (E. faecium ATCC 51559; ATCC 51559, 20 h)","MIC (E. faecium IHMA 890472; IHMA 890472, 20 h)","MIC (A. baumannii ATCC 17978; ATCC 17978, 20 h)","MIC (A. baumannii HUMC1; HUMC1, 20 h)","MIC (A. baumannii IHMA 777621; IHMA 777621, 20 h)","MIC (E. coli 1214245; 1214245, 20 h)","MIC (E. coli 1220120; 1220120, 20 h)","MIC (E. coli ATCC 25922; ATCC 25922, 20 h)","MIC (K. pneumoniae 1227947; 1227947, 20 h)","MIC (K. pneumoniae 1228586; 1228586, 20 h)","MIC (K. pneumoniae ATCC 13883; ATCC 13883, 20 h)","MIC (P. aeruginosa 1218019; 1218019, 20 h)","MIC (P. aeruginosa 1226072; 1226072, 20 h)","MIC (P. aeruginosa PAO1; PAO1, 20 h)",further results
CCCCCCCC(=O)N[C@@H](C(=O)N[C@H](CCN)C(=O)NCC(=O)N[C@H](CO)C(=O)N[C@H](Cc1c[nH]c2ccccc12)C(=O)N[C@@H](CO)C(=O)N[C@@H](CCN)C(=O)N[C@H](CCN)C(=O)N[C@@H](Cc1ccc(O)cc1)C(=O)N[C@@H](CCC(=O)O)C(=O)N[C@H](C(=O)N[C@@H](C(=O)N[C@@H](C)C(=O)O)[C@@H](C)CC)C(C)C)C(C)C [Oct-Tyr9] (Octanoyl-[dV][dDab]G[dS][dW]S[Dab][dDab]YEV[d(aIle)]A-OH),>64 µg/mL,>64 µg/mL,>64 µg/mL,64 µg/mL,64 µg/mL,64 µg/mL,32 µg/mL,32 µg/mL,32 µg/mL,32 µg/mL,2 µg/mL,4 µg/mL,2 µg/mL,4 µg/mL,4 µg/mL,4 µg/mL,4 µg/mL,4 µg/mL,64 µg/mL,–
CCCCCCCC(=O)N[C@@H](C(=O)N[C@H](CCN)C(=O)NCC(=O)N[C@H](CO)C(=O)N[C@H](Cc1c[nH]c2ccccc12)C(=O)N[C@@H](CO)C(=O)N[C@@H](CCN)C(=O)N[C@H](CCN)C(=O)N[C@H](C(=O)N[C@@H](CCC(=O)O)C(=O)N[C@H](C(=O)N[C@@H](C(=O)N[C@@H](C)C(=O)O)[C@@H](C)CC)C(C)C)[C@@H](C)CC)C(C)C [Oct-Ile9] (Octanoyl-[dV][dDab]G[dS][dW]S[Dab][dDab]IEV[d(aIle)]A-OH),>64 µg/mL,64 µg/mL,>64 µg/mL,64 µg/mL,64 µg/mL,64 µg/mL,32 µg/mL,16 µg/mL,16 µg/mL,16 µg/mL,2 µg/mL,2 µg/mL,2 µg/mL,4 µg/mL,4 µg/mL,2 µg/mL,16 µg/mL,16 µg/mL,64 µg/mL,Hemolysis EC50 (Rabbit red blood cells): >128 µg/mL
"CC[C@H](C)CCCCC(=O)N[C@@H](CCN)C(=O)N[C@H](C(=O)N[C@@H](CCN)C(=O)N[C@H]1CCNC(=O)[C@H]([C@@H](C)O)NC(=O)[C@H](CCN)NC(=O)[C@H](CCN)NC(=O)[C@H](CC(C)C)NC(=O)[C@@H](CC(C)C)NC(=O)[C@H](CCN)NC1=O)[C@@H](C)O [colistin, reference compound] (X1-[Dab]T[Dab][Dab][Dab][dL]L[Dab][Dab]T; lactam 4-C (inferred); N-terminus assumed)",–,–,>64 µg/mL,–,–,–,–,–,–,–,–,–,–,–,–,–,–,–,–,"MIC (S. aureus 1126387; S. aureus 1126387 (BV1402), CLSI broth dilution, cation-adjusted Mueller Hinton broth, 20 h, 35 °C, read visually): >64 µg/mL; MIC (S. aureus ATCC 29213; S. aureus ATCC 29213 (BV249), CLSI broth dilution, cation-adjusted Mueller Hinton broth, 20 h, 35 °C, read visually): >64 µg/mL; MIC (ATCC 25922; E. faecalis ATCC 25922 (BV99), CLSI broth dilution, cation-adjusted Mueller Hinton broth, 20 h, 35 °C, read visually): >64 µg/mL; MIC (E. faecalis ATCC 29212; E. faecalis ATCC 29212 (BV29), CLSI broth dilution, cation-adjusted Mueller Hinton broth, 20 h, 35 °C, read visually): >64 µg/mL; MIC (E. faecium ATCC 51559; E. faecium ATCC 51559 (BV159), CLSI broth dilution, cation-adjusted Mueller Hinton broth, 20 h, 35 °C, read visually): >64 µg/mL; MIC (E. faecium IHMA 890472; E. faecium IHMA 890472 (BV144), CLSI broth dilution, cation-adjusted Mueller Hinton broth, 20 h, 35 °C, read visually): >64 µg/mL; MIC (A. baumannii ATCC 17978; A. baumannii ATCC 17978 (BV160), CLSI broth dilution, cation-adjusted Mueller Hinton broth, 20 h, 35 °C, read visually): 1 µg/mL; MIC (A. baumannii HUMC1; A. baumannii HUMC1 (BV374), CLSI broth dilution, cation-adjusted Mueller Hinton broth, 20 h, 35 °C, read visually): 1 µg/mL; MIC (A. baumannii IHMA 777621; A. baumannii IHMA 777621 (BV94), CLSI broth dilution, cation-adjusted Mueller Hinton broth, 20 h, 35 °C, read visually): 64 µg/mL; MIC (E. coli 1214245; E. coli 1214245 (BV1469), CLSI broth dilution, cation-adjusted Mueller Hinton broth, 20 h, 35 °C, read visually): 32 µg/mL; MIC (E. coli 1220120; E. coli 1220120 (BV1475), CLSI broth dilution, cation-adjusted Mueller Hinton broth, 20 h, 35 °C, read visually): 0.5 µg/mL; MIC (E. coli ATCC 25922; E. coli ATCC 25922 (BV23), CLSI broth dilution, cation-adjusted Mueller Hinton broth, 20 h, 35 °C, read visually): 1 µg/mL; MIC (K. pneumoniae 1227947; K. pneumoniae 1227947 (BV1445), CLSI broth dilution, cation-adjusted Mueller Hinton broth, 20 h, 35 °C, read visually): 0.5 µg/mL; MIC (K. pneumoniae 1228586; K. pneumoniae 1228586 (BV1447), CLSI broth dilution, cation-adjusted Mueller Hinton broth, 20 h, 35 °C, read visually): 64 µg/mL; MIC (K. pneumoniae ATCC 13883; K. pneumoniae ATCC 13883 (BV306), CLSI broth dilution, cation-adjusted Mueller Hinton broth, 20 h, 35 °C, read visually): 1 µg/mL; MIC (P. aeruginosa 1218019; P. aeruginosa 1218019 (BV1544), colistin-resistant, CLSI broth dilution, cation-adjusted Mueller Hinton broth, 20 h, 35 °C, read visually): >64 µg/mL; MIC (P. aeruginosa 1226072; P. aeruginosa 1226072 (BV1551), CLSI broth dilution, cation-adjusted Mueller Hinton broth, 20 h, 35 °C, read visually): 0.5 µg/mL; MIC (P. aeruginosa PAO1; P. aeruginosa PAO1 (BV34), CLSI broth dilution, cation-adjusted Mueller Hinton broth, 20 h, 35 °C, read visually): 2 µg/mL; IC50 on HepG2 w/o FCS (HepG2 cells): >128 µg/mL"
